Data on one substance can be found in US20260240179A1, “EDIBLE COMPOSITIONS AND METHODS FOR THE PRESERVATION OF FRUITS AND VEGETABLES” (ONYX LOTUS, LLC, priority 2023, published 2026).

In one test the test system is blueberries. In words: Weight of dipped blueberries over time (moisture retention and freshness).
The test system of a further test is Java plums. Nature of the test: Weight of dipped Java plums over time (moisture retention and freshness). The method, then:
Starting with two sets of java plums, each set containing eight plums, a control set is dipped in 95% ethanol and placed at room temperature and 50% Relative humidity. A second set, the treatment set, is dipped in a zein composition consisting of 100 mL 95% Ethanol+6 g zein powder. […] were weighed on days 1, 2, 3, 4, 6, 7. Weights were taken to approximate moisture retention and freshness. After 7 days, average weight loss of control (no zein applied) Java plums was 28.5% compared to 23.6% weight loss for zein treatment. Java plums treated with zein retained 17.2% more moisture compared to untreated plums.

Setting [1] is: single fruit samples, zein dip (6 g in 100 mL 95% ethanol), 23-25° C., Day 1.

Values joined by “and” are separate entries in the source; they are usually repeats but may differ in a detail not shown here. Identical values can stand only once.

Regarding zein, the average weight loss in the test with blueberries (blueberries, after nine days, dipped in 100 mL 95% ethanol+6 g zein powder, control 43.1%) was determined as 37.2%; with Java plums (Java plums, after 7 days, dipped in 100 mL 95% ethanol+6 g zein powder, control 28.5%) it was 23.6%. For the same substance, the “more moisture retained compared to untreated berries” value with blueberries (blueberries, after nine days, zein dip) stood at 13.7%. Besides, in the test with blueberries (setting [1]), the “Weight of blueberries, Day 1” value was 1.6 grams and 1.79 grams and 1.62 grams and 1.71 grams and 1.7 grams. The “Weight of blueberries, Day 2” value in the test with blueberries (zein dip, 23-25° C., Day 2) is 1.52 grams and 1.7 grams and 1.53 grams and 1.63 grams. The “Weight of blueberries, Day 3” value in the test with blueberries (zein dip, 23-25° C., Day 3) is 1.44 grams and 1.6 grams and 1.54 grams and 1.55 grams. The “Weight of blueberries, Day 5” value with blueberries (zein dip, 23-25° C., Day 5) was 1.3 grams and 1.65 grams and 1.99 grams and 1.63 grams. Also, the “Weight of blueberries, Day 6” value with blueberries (zein dip, 23-25° C., Day 6) is 1.23 grams and 1.22 grams and 1.37 grams and 1.32 grams and 1.36 grams. Besides, in the test on blueberries (zein dip, 23-25° C., Day 7), the “Weight of blueberries, Day 7” value is 1.16 grams and 1.31 grams and 1.26 grams and 1.3 grams. Also, the “Weight of blueberries, Day 8” value in the test on blueberries (zein dip, 23-25° C., Day 8) is 1.09 grams and 1.1 grams and 1.26 grams and 1.19 grams. Also, the “Weight of blueberries, Day 11” value in the test with blueberries (zein dip, 23-25° C., Day 11) was 1.06 grams and 1.2 grams and 1.15 grams and 1.19 grams. In addition, the “Weight of blueberries, Day 12” value in the test on blueberries (zein dip, 23-25° C., Day 12) was 0.97 grams and 0.98 grams and 1.12 grams and 1.08 grams and 1.13 grams. In addition, in the test with blueberries (zein dip, 23-25° C., Day 13), the “Weight of blueberries, Day 13” value was 0.85 grams and 0.86 grams and 1.01 grams and 0.97 grams. In addition, the “Weight of blueberries, Day 14” value with blueberries (zein dip, 23-25° C., Day 14) is 0.82 grams and 0.832 grams and 0.98 grams and 0.94 grams. Besides, the “more moisture retained compared to untreated plums” value in the test on Java plums (Java plums, after 7 days, zein dip) was determined as 17.2%. Besides, the “Weight of Java plums, Day 1” value in the test on Java plums (setting [1]) was 15.82 grams and 15.19 grams and 11.63 grams and 11.83 grams and 16.16 grams and 14.65 grams and 14.35 grams and 12.88 grams. For the same substance, the “Weight of Java plums, Day 2” value in the test on Java plums (zein dip, 23-25° C., Day 2) is 15.03 grams and 14.42 grams and 10.79 grams and 11.19 grams and 13.65 grams and 13.13 grams and 13.63 grams and 12.24 grams. The “Weight of Java plums, Day 3” value in the test with Java plums (zein dip, 23-25° C., Day 3) is 14.46 grams and 13.88 grams and 10.33 grams and 10.72 grams and 12.96 grams and 19.13 grams and 11.78 grams. In the test on Java plums (zein dip, 23-25° C., Day 4), the “Weight of Java plums, Day 4” value is 13.72 grams and 13.16 grams and 9.72 grams and 9.12 grams and 12.36 grams and 12.67 grams and 11.18 grams. In addition, the “Weight of Java plums, Day 6” value in the test on Java plums (zein dip, 23-25° C., Day 6) was 12.53 grams and 12.02 grams and 8.73 grams and 11.33 grams and 11.39 grams and 10.2 grams. Further, in the test with Java plums (zein dip, 23-25° C., Day 7), the “Weight of Java plums, Day 7” value is 12.15 grams and 11.66 grams and 8.4 grams and 11 grams and 11.03 grams and 9.87 grams.
